Laboratory results taken from the NIST ThermoML archive (doi:10.1021/je060474z).

Assay: cn = amount concentration of the nth substance listed, in mol/dm3
Details: 101.3 kPa, Liquid, Taylor dispersion method

OC[C@H]1O[C@@H]2O[C@H]3[C@H](O)[C@@H](O)[C@@H](O[C@H]4[C@H](O)[C@@H](O)[C@@H](O[C@H]5[C@H](O)[C@@H](O)[C@@H](O[C@H]6[C@H](O)[C@@H](O)[C@@H](O[C@H]7[C@H](O)[C@@H](O)[C@@H](O[C@H]1[C@H](O)[C@H]2O)O[C@@H]7CO)O[C@@H]6CO)O[C@@H]5CO)O[C@@H]4CO)O[C@@H]3CO [α-cyclodextrin] + O
binary diffusion coefficient [m2/s]
Details | c1 = 0.002 | c1 = 0.004 | c1 = 0.006 | c1 = 0.008 | c1 = 0.01
298.15 K | 3.52e-10 | 3.5e-10 | 3.49e-10 | 3.47e-10 | 3.46e-10
303.15 K | 4.07e-10 | 4.04e-10 | 4.03e-10 | 4.01e-10 | 3.98e-10
308.15 K | 4.38e-10 | 4.36e-10 | 4.35e-10 | 4.34e-10 | 4.31e-10
312.15 K | 5.02e-10 | 4.98e-10 | 4.88e-10 | 4.78e-10 | 4.72e-10
